“Also recorded” adds a separate entry of the source. Like-named read-outs stand apart in the source and are kept apart here.
How the values were obtained:
SARS-CoV-2 = assay: microbe, parasite or virus in culture; type: cell-based; details: for inhibition of SARS-CoV-2 by monoterpenes (in words): 72 h incubation
in vitro = details: African green monkey
[1] = Cytotoxicity assay (MTS tetrazolium) on Vero 76 cells; details: African green monkey
[2] = Severe acute respiratory syndrome coronavirus 2, Vero 76, 72 h, read-out: EC50 SARS-Cov2, monoterpenes, infected Vero 76 cells, 0.02 MOI, 72 h, MTT, tested 1,000–4.91 μM, mean ± SD
[3] = read-out: EC50 SARS-Cov2, monoterpenes, infected Vero 76 cells, 0.02 MOI, 72 h, MTT, tested 1,000–4.91 μM, mean ± SD
[4] = Severe acute respiratory syndrome coronavirus 2, Vero 76, 72 h, monoterpenes, infected Vero 76 cells, 0.02 MOI, 72 h, MTT, tested 1,000–4.91 μM, mean ± SD, read-out: EC50 SARS-Cov2
[5] = monoterpenes, infected Vero 76 cells, 0.02 MOI, 72 h, MTT, tested 1,000–4.91 μM, mean ± SD, read-out: EC50 SARS-Cov2

## Cc1ccc(C(C)C)cc1O [Carvacrol]
SARS-CoV-2; [2]
  EC50: 86.5 ± 12.7 µM
SARS-CoV-2; [3]
  EC50: 80.2 ± 6.07 µM
SARS-CoV-2; read-out: EC50 SARS-Cov2, monoterpenes, infected Vero 76 cells, 0.02 MOI, 72 h, MTT, tested 1,000–4.91 μM, mean ± SD, listed as carvacrol
  EC50: < 100 µM
In vitro
  IC50: 455 ± 31.1 µM

## CC12CCC(CC1)C(C)(C)O2 [1,8-Cineol]
SARS-CoV-2; [4]
  EC50: > 100 µM
SARS-CoV-2; [5]
  EC50: 129 ± 15 µM
[1]
  IC50: > 1 mM

## Cc1ccc(C(C)C)cc1 [p-Cymene]
SARS-CoV-2; [4]
  EC50: > 1000 µM
SARS-CoV-2; infected Vero 76 cells
  inhibition of SARS-CoV-2 by monoterpenes (in words): did not inhibit the SARS-CoV-2 at any significant rate; also recorded: Absence of activity
[1]
  IC50: > 1 mM

## CC(C)[C@@H]1CC[C@@H](C)CC1=O [Menthone]
SARS-CoV-2; [4]
  EC50: > 1000 µM
SARS-CoV-2; infected Vero 76 cells
  inhibition of SARS-CoV-2 by monoterpenes (in words): did not inhibit the SARS-CoV-2 at any significant rate; also recorded: Absence of activity
[1]
  IC50: > 1 mM

## C=C(C)C1CC=C(C)CC1 (centres unmarked) [Limonene]
SARS-CoV-2; Severe acute respiratory syndrome coronavirus 2, Vero 76, 72 h, read-out: EC50 SARS-Cov2
  EC50: > 1000 µM
[1]
  IC50: > 1 mM

## CC(C)=C1CC[C@@H](C)CC1=O [Pulegone]
SARS-CoV-2; [2]
  EC50: > 100 µM
SARS-CoV-2; [3]
  EC50: 196 ± 17.1 µM
In vitro
  IC50: > 1000 µM

## C=CC(C)(O)CCC=C(C)C (centres unmarked) [Linalool]
SARS-CoV-2; [2]
  EC50: > 1000 µM
SARS-CoV-2; infected Vero 76 cells
  inhibition of SARS-CoV-2 by monoterpenes (in words): did not inhibit the SARS-CoV-2 at any significant rate; also recorded: Absence of activity
In vitro
  IC50: > 1000 µM

## Cc1coc2c1CCC(C)C2 (centres unmarked) [Menthofuran]
SARS-CoV-2; [2]
  EC50: > 100 µM
SARS-CoV-2; [3]
  EC50: 154 ± 16.3 µM
In vitro
  IC50: 506 ± 76.4 µM

## C=C(C)C1CC=C(C)C(=O)C1 (centres unmarked) [Carvone]
SARS-CoV-2; [4]
  EC50: 80.2 ± 6.07 µM
SARS-CoV-2; [5]
  EC50: 86.5 ± 12.7 µM
[1]
  IC50: > 1 mM

## CC1=CCC(O)(C(C)C)CC1 (centres unmarked) [Terpinen-4-ol]
SARS-CoV-2; [4]
  EC50: > 1000 µM
SARS-CoV-2; infected Vero 76 cells
  inhibition of SARS-CoV-2 by monoterpenes (in words): did not inhibit the SARS-CoV-2 at any significant rate; also recorded: Absence of activity
[1]
  IC50: > 1 mM

## CC1CCC(C(C)C)C(O)C1 (centres unmarked) [Menthol]
SARS-CoV-2; [4]
  EC50: > 1000 µM
SARS-CoV-2; infected Vero 76 cells
  inhibition of SARS-CoV-2 by monoterpenes (in words): did not inhibit the SARS-CoV-2 at any significant rate; also recorded: Absence of activity
[1]
  IC50: > 1 mM

## Cc1ccc(C(C)C)c(O)c1 [Thymol]
SARS-CoV-2; infected Vero 76 cells, 72 h, concentration not given
  rate of SARS-Cov-2 inhibition: 58.54 ± 10.45%
SARS-CoV-2; infected Vero 76 cells
  inhibition of SARS-CoV-2 by monoterpenes (in words): limited antiviral activity
[1]
  IC50: 0.509 ± 0.0315 mM

## CC1=CC[C@@H](C(C)(C)O)CC1 [α-Terpineol]
SARS-CoV-2; [4]
  EC50: > 1000 µM
SARS-CoV-2; infected Vero 76 cells
  inhibition of SARS-CoV-2 by monoterpenes (in words): did not inhibit the SARS-CoV-2 at any significant rate; also recorded: Absence of activity
[1]
  IC50: > 1 mM

## CCN(CC)CCCC(C)Nc1ccnc2cc(Cl)ccc12 (centres unmarked) [Chloroquine, reference compound]
SARS-CoV-2; [4]
  EC50: 7.57 ± 1.18 µM
In vitro
  IC50: > 1000 µM

— publication PMC9108200, “Antiviral Activity of Selected Lamiaceae Essential Oils and Their Monoterpenes Against SARS-Cov-2” (Frontiers in Pharmacology, 2022)
